Assay results published in patent US20090012018A1, “Inhibition of pancretic cancer cell growth” (priority 2004, published 2009).
Entries after “also recorded” stand apart in the source; their conditions may differ.

How the values were obtained:
[1] = tested on: pancreatic adenocarcinoma cell lines; experiment: Growth, BrdU incorporation and apoptosis of pancreatic cancer cell lines (results stated for the lines together); type: cell-based, human; conditions: for pancreatic cancer cell growth or survival: drug treatment vs untreated control cells, NS-398 up to 25 μM, sodium salicylate up to 100 μM, sulindac sulfone up to 300 μM, FIG. 3B, 5B
Protocol: (§1) The small chemical inhibitors were used at the following final concentrations: up to 250 μM for sulindac (Sigma), up to 300 μM for sulindac sulfone (Calbiochem or ICN), NS-398 up to 25 μM (Calbiochem), sodium salicylate up to 100 μM (Calbiochem). […] To test for drug sensitivity, the cells were plated in control medium or in medium containing the drug of interest for 2 to 5 days. The culture media was changed every 48 hrs. The images showing cell morphology were taken with a Nikon inverted microscope.
(§2) Cells were pulsed with 10 μM BrdU for two hours and then harvested and fixed. BrdU incorporation was detected with a fluorescein isothiocyanate conjugated anti-BrdU antibody (BD Biosciences) and total DNA was stained with 7-AAD (BD Biosciences). FACS analysis was performed according to the BD Biosciences BrdU flow kit manual. Cells in S-phase were defined as the BrdU-positive cell population with a DNA content between 2N and 4N. According to the manual, apoptotic cells were defined as a subpopulation of G0/G1 cells with DNA content lower than the diploid amount (<2N).
(§3) The cell lines were plated the day prior to transfection at a density of 8×10^4 cells/well in a 24-well plate. The luciferase reporter constructs used included: Top-Flash and Fop-Flash containing multimerized Tcf-Lef binding sites or nonfunctional sites, respectively; TK-Luc (Promega); and GliBS containing 8×Gli binding sites upstream of the TK minimal promoter (Sasaki et al., Development, 124:1313-1322, 1997). In different experiments, the reporter constructs were co-transfected with an expression vector containing a dominant-negative form of Lef1 or the endogenous Wnt inhibitor Icat. The dominant negative Lef1 (gift from S. Pleasure) was generated by cloning the 63 amino acid N-terminal deleted form of Lef1 into the pEF5 plasmid. This construct also contains an IRES-EGFP cassette. The cDNA coding for the Icat protein was cloned into pIRES2-EGFP (BD Biosciences Clontech). Transfections were performed using the Effectene transfection reagent […] according to the user's manual. A Renilla luciferase plasmid (Promega) was included to control for transfection efficiency. Transfected cells were cultured in medium containing serum. […] Cells were harvested 24 hrs after transfection, and luciferase activity was assayed using the Dual Luciferase kit (Promega), according to the user's manual.
Small interfering RNA (siRNA) oligonucleotides against β-catenin containing two thymidine residues (dTdT) at the 3′ end of the sequence (5′-[…] […] T-3′ set forth as SEQ ID NO:57) were used for treatment of cancer cells as described (Verma et al., Clin Cancer Res, 9:1291-1300, 2003). The GLI1 siRNA (sense 5′-[…] […]-3′ set forth as SEQ ID NO:58) was also used as described (Sanchez et al., Proc Natl Acad Sci USA 101:12561-12566, 2004). Small interfering RNA against GLI2 was ordered against the target sequence 5-[…] […] A-3′, set forth as SEQ ID NO:59). […] Cells were transfected with oligofectamine (Invitrogen) according to the user's manual, with a final siRNA concentration of 100 or 300 nM. Transfected cells were incubated for 48 hrs before harvesting.

[2] = tested on: Wnt signaling (Top-Flash reporter); experiment: Fop/Top-Flash luciferase reporter assay; type: cell-based, human; conditions: for Top-Flash reporter activity (Wnt signaling): CFPAC-1, BxPC3, L3.6sl, Panc4.21, 24 hrs after transfection, sulindac 250 μM, sulindac sulfone 150 μM, cyclopamine 10 μM, or co-transfection
Protocol: as §3
For each Fop-luciferase or Top-luciferase experiment, a renilla luciferase construct was included. For each experimental condition (drug treatment, co-transfection or siRNA), triplicate Top- and Fop-luciferase samples were analyzed. To equilibrate the total vector-DNA (or siRNA) amount in all samples, equivalent amounts of an empty expression vector or unrelated siRNAs were transfected into control samples. The following equations were used to obtain the normalized luciferase values and the relative (fold) activation. The firefly luciferase (Fop and Top) values were divided by the renilla luciferase values to obtain the normalized luciferase values. The normalized Top values for each condition were divided by the Fop values of the same condition (e.g., untreated Top/untreated Fop; drug-treated Top/drug-treated Fop). […] To minimize the number of bars in each figure, only representative average Fop values are included in the graphs.

BxPC3 tumors = experiment: Subcutaneous tumor treatment in nude mice; type: in vivo, CD-1 nude mice
Protocol: (§4) A total of 0.1 ml Hanks' balanced salt solution and matrigel (1:1) containing 2×10^6 cells was injected subcutaneously into CD-1 nude mice (Charles River Laboratories). Tumors were grown for 4 days to a minimum volume of 125 mm^3. Treatment was initiated simultaneously for all subjects. Mice were injected with vector alone (peanut oil: PBS 7:3 v/v) or with a sulindac solution (3 mg/mouse/day) daily for 5 days. Sulindac sulfone was administered orally (1.5 mg/mouse/day). At the end of the treatment period, tumors were excised from mice, weighed and photographed.

CFPAC-1 tumors = experiment: Subcutaneous tumor treatment in nude mice; type: in vivo, CD-1 nude mice; conditions: treated for five days vs controls, sulindac 3 mg/mouse/day injected, sulindac sulfone 1.5 mg/mouse/day orally
Protocol: as §4

CFPAC-1 = experiment: Sensitivity of pancreatic adenocarcinoma cells to drug treatment (cell proliferation, apoptosis); type: cell-based, human; conditions: CFPAC-1 (CFPAC); vs untreated controls; FIG. 3B, 5
Protocol: The culture media was changed every 48 hrs.
as §2

Panc1.28 = experiment: Sensitivity of pancreatic adenocarcinoma cells to drug treatment (cell proliferation, survival); type: cell-based, human; conditions: FIG. 6
Protocol: (§5) Human pancreatic adenocarcinoma cell lines HPAC, SW1990, Mpanc-96, SU86.86, PL45, Panc10.05 Panc2.03 and Panc8.13 were obtained from ATCC; cell lines MiaPaCa2, Panc1, CFPAC-1, HPAFII, Capan-2, AsPC1, Hs766T and BxPC3 were a gift from Schering Plough; cell lines COLO357, L3.3, L3.6 pl and L3.6 sl were a gift from I. Fidler; cell lines Panc3.27, Panc4.21, Panc5.04, Panc2.13, Panc1.28 and Panc6.03 were a gift from E. Jaffee. BxPC3 and the Panc cell lines were grown in RPMI medium (Gibco) supplemented with 10% FBS, L-glutamine and penicillin/streptomycin; medium for the Panc cells was also supplemented with insulin-transferrin-selenium (Gibco). The CFPAC-1, Panc1, AsPC1, Hs766T, L3.6sl and L3.6pl were grown in DMEM without phenol red (CellGro), supplemented with 10% FBS. Derivation and culture of PDC cells was as described (Schreiber et al., Gastroenterology, 127:250-260, 2004).
as §1, §2

Panc10.05 = experiment: as above; type: cell-based, human; conditions: Panc 10.05; FIG. 6
Protocol: as §5, §1, §2

BxPC3 = experiment: Sensitivity of pancreatic adenocarcinoma cells to drug treatment (cell proliferation, apoptosis); type: cell-based, human; conditions: vs untreated controls, FIG. 3B
Protocol: as §5, §1, §2

Panc4.21 = experiment: as above; type: cell-based, human; conditions: vs untreated controls, FIG. 3B
Protocol: as §5, §1, §2

L3.6sl = experiment: as above; type: cell-based, human; conditions: vs untreated controls, FIG. 3B
Protocol: as §5, §1, §2

Solubility = type: physicochemical; conditions: required oral application
L3.6sl tumors = experiment: Subcutaneous tumor treatment in nude mice; type: in vivo, CD-1 nude mice
Protocol: as §4
Individual or combined treatment was initiated after tumors were palpable.

[3] = tested on: Hedgehog signaling (GliBS-luc reporter); experiment: GliBS-luciferase reporter assay; type: cell-based, human; conditions: BxPC3 cells; cyclopamine 10 μM
Protocol: The cell lines were plated the day prior to transfection at a density of 8×10^4 cells/well in a 24-well plate. The luciferase reporter constructs used included: Top-Flash and Fop-Flash containing multimerized Tcf-Lef binding sites or nonfunctional sites, respectively; TK-Luc (Promega); and GliBS containing 8×Gli binding sites upstream of the TK minimal promoter (Sasaki et al., Development, 124:1313-1322, 1997). In different experiments, the reporter constructs were co-transfected with an expression vector containing a dominant-negative form of Lef1 or the endogenous Wnt inhibitor Icat. The dominant negative Lef1 (gift from S. Pleasure) was generated by cloning the 63 amino acid N-terminal deleted form of Lef1 into the pEF5 plasmid. This construct also contains an IRES-EGFP cassette. The cDNA coding for the Icat protein was cloned into pIRES2-EGFP (BD Biosciences Clontech). Transfections were performed using the Effectene transfection reagent […] according to the user's manual. A Renilla luciferase plasmid (Promega) was included to control for transfection efficiency. Transfected cells were cultured in medium containing serum. […] Cells were harvested 24 hrs after transfection, and luciferase activity was assayed using the Dual Luciferase kit (Promega), according to the user's manual. […]

Tcf4 = experiment: Immunofluorescence of Tcf expression in pancreatic cancer cells; type: cell-based, human; conditions: cyclopamine for 24 hrs (FIG. 4C) or sulindac-treated
Tcf1 = experiment: as above; type: cell-based, human; conditions: pancreatic cancer cells (Panc4.21); cyclopamine for 24 hrs (FIG. 4C) or sulindac-treated
[4] = sulindac sulfone orally 1.5 mg/mouse/day, five days
[5] = treated for five days vs untreated controls, sulindac 3 mg/mouse/day injected, sulindac sulfone 1.5 mg/mouse/day orally

## ICAT: endogenous Wnt inhibitor; cDNA cloned into pIRES2-EGFP expression vector and transfected
[1]; four pancreatic cancer cell lines, 48 hours after transfection, siRNA 100 nM or 300 nM, FIG. 2C, 2D
  cell proliferation (BrdU incorporation) after transfection: strongly inhibits growth; also recorded: significantly reduced
[2]
  Top-Flash reporter activity (Wnt signaling): reduction of Top-Flash activity

## CC1=C(CC(=O)O)c2cc(F)ccc2/C1=C\c1ccc(S(C)(=O)=O)cc1 [sulindac sulfone]
BxPC3 tumors; [4]
  reduction of tumor mass: 60%
BxPC3 tumors; [5]
  tumor growth: reduced
CFPAC-1 tumors
  tumor growth (volume, size): largely unaffected
[1]; 75 μM sulindac sulfone, 5 μM cyclopamine or both, FIG. 4H
  cell proliferation as measured by BrdU incorporation: inhibits cell proliferation
[1]
  pancreatic cancer cell growth or survival: blocked Wnt signaling and cell survival
[2]
  Top-Flash reporter activity (Wnt signaling): inhibit Wnt activity; also recorded: generally more effective than sulindac in blocking Wnt signaling
[2]; listed as Sulindac sulfone
  Top-Flash reporter activity (Wnt signaling): blocked Wnt signaling
CFPAC-1
  cell growth (proliferation, apoptosis): only mildly affected; also recorded: diminishes growth
Panc1.28
  sensitivity / survival (phase contrast images): not sensitive
Panc10.05
  sensitivity / survival (phase contrast images): not sensitive
BxPC3
  cell growth: strongly inhibits growth
Panc4.21
  cell growth: strongly inhibits growth
L3.6sl
  cell growth: strongly inhibits growth
Solubility
  solubility: limited solubility
L3.6sl tumors; [4]
  reduction of tumor mass: 50%
L3.6sl tumors; [5]
  tumor growth: reduced

## CC1=C2C[C@H]3[C@@H](CC=C4C[C@@H](O)CC[C@@]43C)[C@@H]2CC[C@]12O[C@@H]1C[C@H](C)CN[C@H]1[C@H]2C [cyclopamine, 11-deoxojervine]
[2]; BxPC3 cells, cyclopamine 10 μM
  reduction of Wnt signaling: ~23%
Panc1.28
  sensitivity / survival (phase contrast images): not sensitive
Panc10.05
  sensitivity / survival (phase contrast images): not sensitive
[3]
  reduction of Hedgehog signaling: 17%
Tcf4
  Tcf4 expression: efficiently abolished
Tcf4; listed as Cyclopamine
  Tcf4 expression: inhibits Tcf4 and Tcf1 expression
Tcf1
  Tcf1 expression: inhibits Tcf4 and Tcf1 expression; also recorded: reduce expression

## CS(=O)(=O)Nc1ccc([N+](=O)[O-])cc1OC1CCCCC1 [NS-398]
[1]
  pancreatic cancer cell growth or survival: Neither NS-398 (blocks COX-2 activity) nor salicylate (blocks COX-2 transcription) showed any measurable effect
[1]; listed as NS398
  pancreatic cancer cell growth or survival: comparable growth to untreated control cells

## O=C([O-])c1ccccc1O.[Na+] [sodium salicylate]
[1]
  pancreatic cancer cell growth or survival: comparable growth to untreated control cells
[1]; listed as salicylate
  pancreatic cancer cell growth or survival: Neither NS-398 (blocks COX-2 activity) nor salicylate (blocks COX-2 transcription) showed any measurable effect
